# Assay results published in US11510928B2, “Use of mirtazapine in the treatment of inflammatory disorders, autoimmune disease and PBC” (UTI Limited Partnership, priority 2017, dated 2022).
# Key:
# [1] = tested on: hepatic cytokine and chemokine milieu; assay: Hepatic and plasma cytokine/chemokine levels after mirtazapine treatment (Luminex, LEGENDplex); assay type: in vivo, mouse
# Protocol: Male 8-10 week old C57BL/6 mice (Jackson Labs, Bar Harbor, Me.) were used. All procedures were approved by the University of Calgary Animal Care Committee (protocol numbers AC14-0129 and AC14-0128) and were performed in accordance with the guidelines of the Canadian Council on Animal Care. […] Mirtazapine was suspended in 1% aqueous solution of Tween 80, whereas the control group received 1% aqueous solution of Tween 80. Blood and liver samples were collected 5 hours post-mirtazapine treatment (or 16 hours post-Con A treatment). The detailed experimental protocols, lists of antibodies and reagents used, flow cytometry gating, and immune cell phenotyping strategies, are described herein. To delineate the effect of mirtazapine treatment on hepatic cytokine/chemokine expression a Luminex® assay was used using methods as previously described. […] A panel of mouse cytokines/chemokines were simultaneously measured in liver homogenate samples using a mouse MILLIPLEX kit (Millipore, USA) according to the manufacturer's protocol. The multiplexing analysis was performed using the Luminex 100 system (Luminex®, USA; Eve Technologies Corporation, Calgary, Canada). Total protein concentrations in liver homogenates were quantified using a BCA Protein Assay kit (Pierce, USA) according to manufacturers instructions. Results were expressed as pg of analyte per mg of protein. Additional plasma and hepatic measurements were made using a bead-based LEGENDplex immunoassay. Plasma and hepatic levels of CXCL10/IP-10 and CXCL9/Mig were measured using BioLegend's LEGENDplex™ bead-based immunoassays in a 96-well v-bottom microplate, according to the manufacturer's protocol. At the end of the assay, all samples were transferred from the plate to FACS tubes and read on a flow cytometer (Attune® Acoustic Focusing Cytometer). After data acquisition, flow cytometry standard (FCS) files were analyzed using Biolegend's LEGENDplex data analysis software to calculate the concentrations of individual chemokines, and results were expressed as pg of analyte per mg of protein. Alternatively, the flow cytometry standard (FCS) files were analyzed using FlowJo software (Treestar, San Carlos, Calif.).
# [2] = tested on: hepatic macrophages (Kupffer cells), monocytes and B cells; assay: Intravital microscopy (IVM) of liver after mirtazapine treatment; assay type: in vivo, mouse
# From the text: Rationale and Relevant Preliminary Data: The normal liver macrophage pool consists of a large self-renewing, non-migratory population of KCs that are important for maintaining tissue homeostasis^1-3. KCs are situated within the sinusoidal blood flow and are an essential component of hepatic innate immunity, playing key roles in inflammation and defense^2, 4. In addition, KCs fulfill homeostatic functions important for normal liver physiology5. KCs are capable of considerable phenotypic plasticity and are highly sensitive to changes within the hepatic environment, including cytokines^2, 4, 6, 7. In response to environmental cues, KCs are activated and can be polarized along a spectrum between M1-like (induced by IFNγ, TNFα, IL-1β, IL-12, TLR4 agonists) and M2-like (induced by IL-4, IL-13, IL-10) phenotypes^2, 4, 6, 7, and can dynamically shift between these phenotypic extremes in response to changes in their microenvironment^1, 2, 4, 8. This shift is critical for regulating inflammatory and repair processes in the liver^1, 8, 9.
# [3] = pilot study, 4 hrs post-treatment, 20 mg/kg (FIG. 13)
smiles,measurement,setting,value
CN1CCN2c3ncccc3Cc3ccccc3C2C1 (centres unmarked) [Mirtazapine],Plasma levels of CXCL10/IP-10 and CXCL9/MIG vs vehicle,[1]; 5 hours post-treatment,significantly increased
same,Increase in hepatic CXCL9 level vs vehicle,"[1]; 5 hours post-treatment, ip",~7 fold
same,Increase in hepatic CXCL10 level vs vehicle,"[1]; 5 hours post-treatment, ip",~120 fold
same,Increase in hepatic GM-CSF level vs vehicle,"[1]; 5 hours post-treatment, ip",~1.5 fold
same,Increase in hepatic IFNγ level vs vehicle,"[1]; 5 hours post-treatment, ip",~8 fold
same,Increase in hepatic IL-1β level vs vehicle,"[1]; 5 hours post-treatment, ip",~1.5 fold
same,Increase in hepatic IL-4 level vs vehicle,"[1]; 5 hours post-treatment, ip",~30 fold
same,Increase in hepatic IL-5 level vs vehicle,"[1]; 5 hours post-treatment, ip",~2 fold
same,Increase in hepatic IL-6 level vs vehicle,"[1]; 5 hours post-treatment, ip",~1.5 fold
same,Increase in hepatic IL-12 level vs vehicle,"[1]; 5 hours post-treatment, ip",~1.5 fold
same,Increase in hepatic IL-12p40 level vs vehicle,"[1]; 5 hours post-treatment, ip",~1.5 fold
same,Increase in hepatic IL-12p70 level vs vehicle,"[1]; 5 hours post-treatment, ip",~1.5 fold
same,Increase in hepatic IL-15 level vs vehicle,"[1]; 5 hours post-treatment, ip",~1.5 fold
same,Increase in hepatic IL-17 level vs vehicle,"[1]; 5 hours post-treatment, ip",~1.5 fold
same,Increase in hepatic TNFα level vs vehicle,"[1]; 5 hours post-treatment, ip",~1.5 fold
same,"Hepatic levels of IL-2, IL-10, IL-13, IL-7, IL-9, M-CSF, G-CSF, LIF, IL-3, CCL3/MIP-1α, CCL4/MIP-1β, CXCL2/MIP-2, CCL11/Eotaxin-1, CCL5/RANTES","[1]; 5 hours post-treatment, data not shown",unaltered
same,Hepatic levels of the chemokines CXCL10/IP-10 and CXCL9/MIG vs vehicle,"[1]; 5 hours post-treatment, in words",striking increases
same,"Hepatic levels of CCL2/MCP-1, CCL4/MIP-1β, CCL5/RANTES, CCL11/eotaxin-1, CCL3/MIP-1a",[1]; after mirtazapine treatment,no significant changes
same,Hepatic IL-10 levels,[1]; [3],unchanged
same,Increase in hepatic IL-4 levels,[1]; [3],50 fold
same,Interactions between hepatic B cells (CD19+) and hepatic macrophages (F4/80+),"[2]; 20 mg/kg, 3 hrs post-treatment, preliminary data",trend towards increased interactions
same,"Kupffer cell (F4/80+) activation: retraction of cellular processes, rounding of cell shape",[2]; 1 hr after treatment (FIG. 14),activation of KCs
same,Hepatic monocyte populations in CCR2RFP/+CX3CR1GFP/+ reporter mice,"[2]; ~20 hrs post-treatment, pilot study",apparent increase in overall hepatic monocyte numbers coupled with the appearance of CCR2+CX3CR1+ double positive monocytes
